From patent US8124408B2, “Preparation of inactivated artificial antigen presenting cells and their use in cell therapies” (Janssen Pharmaceutica N.V., priority 2006, dated 2012) come the findings set out here.

Where two headings read alike, the source gives them in different places.

For assay [1], the system named is CD8^+ T cells. Description: APC function of glutaraldehyde-fixed Drosophila xAPCs. The assay is classed as cell-based. As to conditions: xAPCs fixed with 0.3% glutaraldehyde. The text has this: Inactivation of Drosophila cells was initially attempted with glutaraldehyde fixation in the absence of preservative.
Assay [2] relates to xenogenic HLA A2.1, B7-1, B7-2, and β2m transcripts. As to the kind of experiment: RT-PCR of xenogenic nucleic acid transcription in xAPC/clone D cocultures. The assay is classed as cell-based, Drosophila. As to conditions: UVADEX 5 μg/ml and UVA 5, 15 or 30 minutes, 10 weeks coculture with clone D. The source says:
RT-PCR products were then visualized by agarose gel electrophoresis.
It was possible that xenogenic nucleic acid introduced into the xAPCs might have remained active, even though the xAPCs themselves were rendered nonproliferative. […] Each culture of xAPCs was washed and cocultured for 10 weeks with an indicator Drosophila cell line designated herein as clone D, which is a cell line that has not been modified by introduction of xenogenic nucleic acid. Reverse transcriptase (RT)-PCR reactions using primers specific for xenogenic HLA A2.1, B7-1, B7-2, and β2m transcripts were then performed on extracts of the cocultures.

For assay [3], the system named is CD8^+ T cells. The text has this:
Human rIL-2 (20 units/ml) and rIL-7 (30 units/ml) were each added to the culture at day 5. The CD8^+ T cells were restimulated twice on the seventh and fifteenth days of the culture period with non-CD8 adherent cells in PBMC from the same donor in the presence of the MART-1 peptides. The expanded CD8^+ T cells were then stained with MART-1 tetramers (Beckman Coulter) consisting of four MHC molecules bound to the MART-1 peptide, which was conjugated to a fluorescent protein, and analyzed by FACS.

Assay [4] has as its system CD8^+ T cells. Description: K^b/OVA8 tetramer staining of mouse CD8+ T cells activated with xAPCs. The format is cell-based, mice. As to the method: Lanes 1 and 2, percentage of stained CD8^+ T cells isolated form and activated from wild type mice (B6), as described in FIG. 8A (performed as a positive control).
IL-2 was added on day three and day five of the xAPC/naïve CD8^+ T cell coculture. The coculture was split on day seven of the coculture period, and on day nine the cultured CD8^+ T cells were collected. An OVA8/MHC tetramer (Beckman Coulter) preparation was prepared and 10 μl was mixed with 1×10^6 CD8^+ T cells/100 μl of FACS buffer (0.5% BSA, 0.2%, NaN3 in PBS). The K^b/OVA8 tetramers consisted of four MHC molecules bound to the OVA8 peptide, which was conjugated to a fluorescent protein. The mixture was incubated at room temperature for 30 minutes and washed in PBS, and then spun down at 400×g for 5 minutes. The cell pellet was resuspended in FACS buffer (500 μl) and immediately read on a FACScan flow cytometry machine at an excitation wavelength of 486 nm-580 nm and an emission wavelength of 586 nm-590 nm.

In assay [5] the test system is baculovirus. Description: baculovirus titer by rapid microtiter assay after UVADEX/UVA treatment of infected Sf9 cells. The assay is classed as cell-based. As to conditions: UVADEX 5 μg/ml. As to the method:
The treated cells were then cultured at 28° C. for 4 days. Cultured supernatant was collected and used to infect fresh, uninfected cultures of Sf9 cells seeded in 96-well plates. Baculovirus present in these Sf9 cultures was detected by a rapid microtiter assay (Invitrogen) using a gp64-specific antibody, and baculovirus titers were calculated.
In a similar experiment, Sf9 cells were infected with the titrated doses of baculovirus as described above. […] The treated cells were then cultured at 28° C. for four days. The culture supernatant was collected and used to infect a new culture of Sf9 cells seeded in 96-well plates. Baculovirus in the Sf9 cells was detected by a rapid microtiter assay (Invitrogen). The culture plates were overlaid with methylcellulose and cultured for 48 hrs. Baculovirus was detected by immunoassay with a gp64-specific antibody (Invitrogen). The number of foci in each well was counted and the virus titer (pfu/ml) of the supernatant of the infected cells was calculated according to the manufacturer's instructions.

The next assay has as its system Drosophila clone B xAPCs. As to the kind of experiment: xAPC proliferation, viable cell count by trypan blue staining. The format is cell-based.
Source text: (§1) Viable (i.e., live) xAPCs were counted on day 1, day 5, day 9, day 14, and day 16 post-treatment by trypan blue staining of each culture.
as §1

A further assay deals with HLA-A2, B7-1, or ICAM-1. Particulars: UVADEX 5 μg/ml, UVA 0, 5 or 15 minutes. As to the method:
(§2) FACS analysis was carried out by independently using antibodies specific for human HLA, human B7.1, and ICAM-1, as indicated.
The xAPC cultures were washed and stained with monoclonal antibodies specific for HLA-A2, B7-1, or ICAM-1 and analyzed by FACS.

The subject of assay [6] is lytic virus associated with Drosophila xAPCs. As to the kind of experiment: infectivity of xAPC viral stock on Drosophila clone D indicator cells. The assay is classed as cell-based. As to the method: Thus, a xAPC culture containing approximately 6×10^8 Drosophila xAPCs (clone B) was collected, suspended in 0.6 ml Schneider's media on ice, and sonicated for 30 seconds. Cell debris was pelleted by centrifugation, and the supernatant collected and layered onto a cesium chloride (CsCl) cushion, which was at a density of 1.2 (20% w/w CsCl), at a ratio of three volumes of supernatant to one volume of CsCl. The supernatant-loaded CsCl cushion was then ultracentrifuged at 25,000 rpm for four hours. Viral fractions were collected and the fraction densities measured. Three milliliter fractions at a density of 1.0 to 1.2 were pooled and dialyzed against phosphate-buffered saline (PBS), generating a viral stock, and the viral stock stored at −80° C. until use. […] Independent cultures (1×10^6 cells/culture) of the Drosophila clone D indicator cell line were incubated at 28° C. with either the treated and untreated viral aliquots. After a three-day incubation period, the indicator cell cultures were harvested and stained with propidium iodide (PI) (1 μg/1×10^6 cells) at 4° C. for 10 minutes. The live and lytic cells were analyzed by FACS, with the results depicted in FIGS. 4A-4C.
After a three-day incubation period, the percentage of viable cells was quantified in each indicator cell line culture. […]

Assay [7] deals with baculovirus. Description: baculovirus/Sf9 infectivity assay. The format is cell-based. As to conditions: for Virus Titer (10^−4) / Virus Titer (10^−5): UVADEX 5 μg/ml, virus added, Sf9 cells, triplicate. As to the method:
A baculovirus/Sf9 infectivity assay was used to determine if psoralen-derivative/UVA treatment was sufficient to inactivate viruses associated with virus-infected insect cells. Sf9 insect cells were infected with BacPAK6 viral stock and incubated at room temperature for one hour (BacPAK6 baculovirus rapid titer kit; BD Biosciences Clontech). […] Five days after irradiation, culture supernatants were collected. From these, new viral stocks were prepared via serial dilutions of 10^−3, 10^−4 and 10^−5, respectively. These serially diluted stock dilutions were each used to infect a second set of fresh (i.e., not previously infected) Sf9 cell cultures. This second set of cultures was overlaid with methylcellulose and grown for approximately 48 hours. Culture supernatants of this second set of cultures were discarded and a mouse monoclonal anti-gp64 (baculovirus-specific) protein antibody (Invitrogen) was added. After an inbubation period and several washes to remove unbound anti-gp64 antibody, a goat-anti-mouse polyclonal antibody conjugated to horseradish peroxidase (i.e., secondary antibody obtained from Invitrogen) was added. Unbound secondary antibody was removed with several washes, and […] was added. The number of stained foci was counted and the virus titer (pfu/ml) was calculated according to the manufacturer's instructions.

The subject of another assay is HLA-A2, B7-1, and ICAM-1. As to the kind of experiment: FACS of exogenous molecules in xAPC clone B/clone D cocultures. The format is cell-based, Drosophila. As to conditions: UVADEX/UVA 5 μg/ml, 10 weeks coculture with clone D. As to the method: as §2
For comparison, γ-radiation-treated xAPC clone B/clone D cocultures and untreated xAPC clone B/clone D cocultures were analyzed by FACS as well.
The cells from each culture were washed and then and cocultured with clone D indicator cells for 10 weeks. The cocultured cells were collected and aliquoted, and each aliquot was stained with one of HLA-A2, B7-1, and ICAM-1 fluorescein isothiocyanate (FITC)-conjugated monoclonal antibodies (mAbs), respectively. The stained cocultures were then analyzed by FACS.

[8] abbreviates: UVA irradiation time 10 minutes.

As for `O=CCCCC=O` [glutaraldehyde], in the assay on CD8^+ T cells [1], the “CD8^+ T cell activation, less than unfixed cells” value is 2 fold; the “antigen-specific proliferation of CD8^+ T cells, less than unfixed cells” value is 2.5- to 6 fold; the “generation of CD8^+ T cells capable of lysing target cells” value is on record as “to a lesser degree than unfixed cells”.
Consider `COc1c2occc2cc2ccc(=O)oc12` [UVADEX, 9-methoxy-7H-furo[3,2-g]-1-benzopyran-7-one], for which the “xenogenic HLA A2.1, B7-1, B7-2, and β2m transcripts” value in [2] was “absence of detectable levels”. Also, the “Percent p/MHC tetramers of CD8^+ T cells (% Tetr + CD8^+)” value with CD8^+ T cells [3] (Donor 1, MART-1 tetramer) stood at 0.95%; with CD8^+ T cells [3] (Donor 2, MART-1 tetramer), 11.55%; with CD8^+ T cells [3] (Donor 3, MART-1 tetramer) it was 15.07%; in the assay on CD8^+ T cells [3] (Donor 4, MART-1 tetramer), 43.33%. Further, the “percentage of CD8^+ T cells stained with K^b/OVA tetramer versus non-treated xAPCs” value in the assay with CD8^+ T cells [4] (MyD88 knock-out (MyD88^−/−) mice) was “no increase”; with CD8^+ T cells [4] (wild type (C57BL/6 (B6)) mice), “higher percentage”. In addition, the “baculovirus titer of culture supernatant” value in the assay with baculovirus [5] (ten-minute UVA) and in the assay on baculovirus [5] (twenty-minute UVA) was “no detectible baculovirus titer” throughout. Moreover, the “inactivation of Drosophila cells” value in the assay on Drosophila clone B xAPCs (8-MOPs plus 1 Joule/cm^2 for 2 minutes) is “sufficient to inactivate Drosophila cells”. In addition, the cytotoxicity at 5 µg/mL in the assay on Drosophila clone B xAPCs (Drosophila melanogaster, light or radiation study, read-out: inhibition of viability of xAPC cultures) is approximately 50%. In the assay on Drosophila clone B xAPCs (two weeks after UVADEX/UVA treatment, any treated culture), the “viable xAPCs detected” value is recorded as “almost no viable cells were detected”. In the assay on HLA-A2, B7-1, or ICAM-1, the “surface expression level of the three exogenous molecules” value is “essentially the same”. Moreover, in assay [6] (5 μg/ml for 10 minutes, dilutions 10^−1 to 10^−9, three-day incubation), the “infection and lysis of indicator cell culture by serial dilutions of viral stock” value was “almost completely incapable of infecting and lysing the indicator cell culture at all but the lowest dilution tested”. In addition, the “indicator cell infection or lysis by microscopy” value in [6] (viral stock treated 5 μg/ml for 10 minutes, three-day incubation) was “failed to result in any observable indicator cell infection or lysis”. Moreover, the “infectious virus in viral stock obtained in the supernatant” value in the assay on baculovirus [7] (5 mcg/ml 8-MOPs, UVA 320-380 nm for 5 minutes, infected Sf9 cells) is recorded as “does not contain infectious virus”. For the same compound, the “Virus Titer (10^−4)” value in the assay with baculovirus [7] (UVA irradiation time 5 minutes) and in the assay with baculovirus [7] (setting [8]) was 0 each time. In addition, the “Virus Titer (10^−5)” value with baculovirus [7] (UVA irradiation time 5 minutes) and in the assay with baculovirus [7] (setting [8]) was 0 throughout. Moreover, in the assay with HLA-A2, B7-1, and ICAM-1, the “expression of HLA-A2, B7-1, and ICAM-1 in cocultures” value is “undetectable levels”.
